We go through one compound from paper PMC8958510 (Journal of Medicinal Chemistry, 2022).

One data set has as its system SH-SY5Y cells. The data set is described as follows: Cytotoxicity in SH-SY5Y cells, propidium iodide stain. It is filed as cell-based, human.
A further data set deals with T1, recombinant mouse AChE (Mus musculus, UniProt P21836).
T1 construct: purchased Bio-Techne, Milan, Italy
T1 sequence (P21836 32-614): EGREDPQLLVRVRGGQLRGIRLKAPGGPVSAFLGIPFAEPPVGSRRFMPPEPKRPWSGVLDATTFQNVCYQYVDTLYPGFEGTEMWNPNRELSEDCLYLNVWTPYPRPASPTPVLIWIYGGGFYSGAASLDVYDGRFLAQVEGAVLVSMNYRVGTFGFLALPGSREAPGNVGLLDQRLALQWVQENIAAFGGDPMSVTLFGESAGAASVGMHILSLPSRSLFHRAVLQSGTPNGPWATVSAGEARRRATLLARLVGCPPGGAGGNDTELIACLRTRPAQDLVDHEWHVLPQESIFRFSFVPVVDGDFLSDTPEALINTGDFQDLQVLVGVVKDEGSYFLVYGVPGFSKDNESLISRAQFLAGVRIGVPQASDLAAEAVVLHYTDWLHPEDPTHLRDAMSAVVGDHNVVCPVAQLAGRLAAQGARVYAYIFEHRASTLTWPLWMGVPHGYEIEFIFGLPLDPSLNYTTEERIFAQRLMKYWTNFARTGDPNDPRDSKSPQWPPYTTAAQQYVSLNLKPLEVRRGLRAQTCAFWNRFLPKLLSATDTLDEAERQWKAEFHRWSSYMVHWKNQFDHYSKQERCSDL
In words: Mouse acetylcholinesterase inhibition, Ellman's method. It is filed as biochemical.

The subject of data set [1] is hippocampus of SAMP8 mice. In words: Hippocampal protein levels by western blot in SAMP8 mice. In kind it is in vivo, mouse. To be noted: 2 mg kg^–1 day^–1 oral, 4 weeks, vs control. The text has this:
In Vivo Proof-of-Concept of the Dual sEH / AChE Inhibitor […] in SAMP8 Mice Animals and treatment. The senescence-accelerated mouse-prone 8 (SAMP8) is an accelerated aging model established through phenotypic selection from AKR/J mice by […]
abnormal APP and β-amyloid processing and tau pathology, among others. Likewise, SAMP8 […]
and oxidative stress markers are present at early ages and during adultness.15 In this work, 5-month-old male SAMP8 mice were used to perform behavioral and molecular analyses.
Animals were randomly divided into SAMP8 control (n=8) and SAMP8 treated with 12c […]
(n=8, 2 mg kg‒1 day‒1). The animals had free access to food and water and were kept under standard temperature conditions (22 ± 2 °C) and 12-h/12-h light/dark cycles (300 lux/0 lux).
Compound 12c was dissolved in 1.8% (2-hydroxypropyl)-β-cyclodextrin (Sigma-Aldrich, St.
Louis, MO) and administered through drinking water for 4 weeks (Figure S6 of the Supporting Information). Control groups received water plus 1.8% (2-hydroxypropyl)-β-cyclodextrin during the treatment period. After 4 weeks of treatment, behavioral and cognitive tests were performed to study the effects of treatment on working memory. Drug administration was continued until euthanasia by cervical dislocation, three days after the cognitive tests were completed. The brains were immediately removed from the skulls and the hippocampi were dissected, frozen and maintained at ‒80 °C.
Weight and water consumption were controlled each week, and compound concentration was adjusted accordingly to reach the optimal dose. Mice were treated according to European Community Council Directive 86/609/EEC and were approved by the Institutional Animal Care and Use Committee of the University of Barcelona (670/14/8102) and by Generalitat de Catalunya, Spain (10291). All studies and procedures for the behavioral tests, brain dissection and extractions followed the ARRIVE. Every effort was made to minimize animal suffering and to reduce the number of animals. […]
Exploration was defined as sniffing or touching the objects with the nose and/or forepaws.
The discrimination index (DI) was calculated as (TN‒TO)/(TN+TO). To avoid object preference biases, objects were alternated. 70% EtOH was used to clean the arms and objects after each trial for the elimination of olfactory cues.
Molecular analyses. Immunodetection experiments by western blot. The hippocampal tissue from each animal was homogenized in lysis buffer (Tris HCl pH 7.4 mM, NaCl 150 mM, EDTA 5 mM and 1X-Triton X-100) containing phosphatase and protease inhibitors (Cocktail II, Sigma-Aldrich, St. Louis, MO, USA) to obtain total protein homogenates. The Bradford technique was used to determine total protein concentration. Aliquots of 15 μg of total hippocampal protein were used and separated by sodium dodecyl sulfate-polyacrylamide gel […] (SDS-PAGE) (8‒20%) and transferred into polyvinylidene difluoride (PVDF) membranes (Merck-Millipore, Burlington, MA, USA) for 2 h. The membranes were blocked in 5% non-fat milk in TRIS-buffered saline (TBS) containing 0.1% Tween 20 (TBS-T, Sigma-Aldrich, St. Louis, MO, USA) for 1 h at room temperature, and then, overnight […]
membranes were washed with TBS-T 3 times for 5 min and incubated with secondary antibodies for 1 h at room temperature. Immunoreactive protein was viewed with a Chemiluminescence-based detection kit, following the manufacturer’s protocol (ECL Kit; Merck-Millipore), and digital images were acquired using a ChemiDoc XRS+ System (BioRad lab, Hercules, CA, USA). Semi-quantitative analyses were done using ImageLab Software (BioRad Lab), and results were expressed in Arbitrary Units (AU) considering control protein levels as 100%. Protein loading was routinely monitored by immunodetection of glyceraldehyde-3-phosphate dehydrogenase (GADPH).

A short description of data set [2]: Microsomal stability, human liver microsomes. In kind it is in vitro ADME. (In general: Liver microsomes are a subcellular fraction often used to study metabolism.)
Protocol: (§1) Microsomal stability screen. The microsomal stability of the target compounds was
(§2) determined at the Innopharma Drug Screening and Pharmacogenomics Platform (Santiago de
(§3) Compostela, Spain). The human, rat and mice pooled microsomes, with a protein content of 20 mg mL‒1, were purchased from Tebu-Xenotech. The compounds were incubated in a 96-well microplate at 37 °C with the microsomes in 50 mM phosphate buffer (pH = 7.4) containing as cofactors 30 mM MgCl2, 10 mM NADP, 100 mM glucose-6-phosphate and 40
(§4) Samples (75 µL) were taken from each well at 0, 10, 20, 40 and 60 min and transferred to a microplate. 4 °C Acetonitrile (75 µL) and internal standard (rolipram) were then added for inactivating the microsomes, and water with 0.5% formic acid (30 µL) was subsequently added for improving the chromatographic conditions, keeping the mixtures at 4 °C. The plate was centrifuged at 46,000 g for 30 min at 15 °C and supernatants were taken and analyzed in a UPLC-MS/MS system (UPLC QSM Waters Acquity) using reverse phase Acquity UPLC® HSST3 1.7 μm (2.1 mm × 50 mm, Waters) as the stationary phase, 0.1% formic acid in water (A) / 0.1% formic acid in acetonitrile (B) as the mobile phase, a flow of 0.8 mL min‒1, and the
(§5) The metabolic stability of the compounds was calculated from the logarithm of the remaining compound at each of the time points studied.
A short description of data set [3]: Microsomal stability, rat liver microsomes. In kind it is in vitro ADME.
Protocol: as §1, §2, §3, §4, §5

Protocol for SH-SY5Y cells: Cytotoxicity in SH-SY5Y cells. The cytotoxicity of the target compounds was evaluated in
Minimum Essential Medium / Ham’s-F12 (1:1, v/v) medium (Biowest), supplemented with
non-essential amino acids, 10% fetal bovine serum, 1 mM glutamine and 50 µg mL‒1
gentamycin (all reagents from Gibco, Thermo Fisher Scientific). For the experiments, cells
were seeded at 3 × 10^5 cells mL‒1 (100 µL per well) in 96-well plates (Nunc). After 24 h, the
test compounds were added concentrated from stock solutions in DMSO and culture medium
to triplicate wells to obtain the final different concentrations up to 100 µM in 0.1% DMSO.
Compounds were incubated for further 24 h. At termination, cytotoxicity was analyzed by the
propidium iodide (PI) fluorescence stain assay. All compounds were tested in three
independent experiments using different cell passages. The PI assay measures cell death. PI
enters into the cells with damaged membranes and greatly increases the fluorescence upon
binding to DNA. PI reagent (Molecular Probes) at the final concentration of 7.5 µg mL‒1 was
added to the cells and incubated for 1 h. The resulting fluorescence was measured by a Flx-
death induced by the compounds was calculated from to the fluorescence of treated cells (Ft)
relative to that of control cells (Fmin) and cells incubated with Triton X100 (Fmax) as the 0%
and 100% cell death, respectively [% = ((Ft-Fmin)/(Fmax-Fmin)) × 100]. All compounds
were tested in three independent experiments using different cell passages. LC50 values were
calculated for each experiment and the results are expressed as mean ± SD.
Protocol for recombinant mouse AChE: Human and mouse acetylcholinesterase and human butyrylcholinesterase inhibition
assay. The inhibitory activity of the target compounds toward recombinant human AChE
(Sigma-Aldrich, Milan, Italy), recombinant mouse AChE (Bio-Techne, Milan, Italy) and
human serum BChE (Sigma-Aldrich, Milan, Italy) was assessed by Ellman’s method,8 using
Stock solutions of the AChEs were prepared by
dissolving enzyme lyophilized powder (hAChE) or diluting the enzyme commercial solution
(mAChE) in 0.1 M potassium phosphate (pH 8.0) containing 0.1% Triton X-100, whereas the
stock solution of hBChE was prepared in 0.1% aq. gelatin and the stock solutions of the
compounds to be tested were made in MeOH (2-4 mM). The assay solution consisted of 0.02
unit mL‒1 of the enzyme, 340 M 5,5’-dithiobis(2-nitrobenzoic acid), and 550 M of the
substrate acetylthiocholine iodide (for AChE assay) or butyrylthiocholine iodide (for BChE
assay) in 0.1 M potassium phosphate (pH 8.0). Blank solutions containing all components
except the enzymes were prepared to account for the non-enzymatic hydrolysis of the
Prior the addition of the substrate, the assay solutions were incubated at 37 °C for 20 min.
After the addition of the substrate, cuvettes were rapidly transferred into a Jasco V-530
double beam spectrophotometer equipped with thermostated cuvette holders (37 °C), in order
for 240 s. For each tested compound, five increasing concentrations were assayed in order to
achieve inhibition percentages of 20‒80%. Each concentration was assayed in triplicate. IC50
values were calculated from the inhibition plot (% inhibition vs log[inhibitor]) and are
expressed as mean ± SEM. Each IC50 value is the average of at least two experiments, each

On to `O=C(Nc1ccc(OC(F)(F)F)cc1)NC1CCN(C(=O)CCCCNc2c3c(nc4cc(Cl)ccc24)CCCC3)CC1` [12c, 1-{1-{5-[(6-Chloro-1,2,3,4-tetrahydroacridin-9-yl)amino]pentanoyl}piperidin-4-yl}-3-[4-(trifluoromethoxy)phenyl]urea], for which the “toxicity to SH-SY5Y cells LD50” value in the data set on SH-SY5Y cells (propidium iodide staining after 24 h of incubation, mean ± SD) was above 100 µM. In the data set on SH-SY5Y cells (supplementary CSV), the “LD50 (SH-SY5Y)” value is listed as > 100 ?M. For the same compound, on recombinant mouse AChE, the “mAChE potency relative to 6-chlorotacrine” value is 5 fold and the “potency toward mAChE relative to hAChE” value was 3 fold. Also, the concentration for half-maximal inhibition (IC50) on recombinant mouse AChE (recombinant mouse AChE, mean ± SEM, read-out: mAChE IC50) amounted to 4.12 ± 0.23 nM. Also, in data set [1], the “hippocampal levels of synaptophysin (SYN)” value is reported as “significantly increased”, the “hippocampal protein levels of NFkβ” value is “reduced in mice treated with 12c relative to untreated mice but without reaching statistical significance”, the “hippocampal protein levels of sAPPα” value is “significant increase” and the “hippocampal protein levels of sAPPβ” value is given as “tendency toward reduced levels”. Further, in data set [1], the “tau phosphorylation at Ser396” value is given as “significant site-specific reduction” and the “tau phosphorylation at Ser404” value is “slightly decreased phosphorylation”. Also, the “% compound remaining non-metabolized, human microsomes” value in data set [2] (after 10 min at 37 °C) was determined as 82%. Besides, the “% compound remaining non-metabolized, human microsomes” value in data set [2] (after 20 min at 37 °C) turned out to be 74%. This compound also yielded a microsomal CLint at 1 h in data set [2] (human, liver microsomes (pooled), pH 7.4, 37 °C) of 8 µL/min/mg. Besides, the half-life at 1 h in data set [2] (human, liver microsomes (pooled), pH 7.4, 37 °C, read-out: t1/2, human microsomes) turned out to be 91 min. Also, the amount remaining at 1 h in data set [2] (human, liver microsomes (pooled), pH 7.4, after 1 h of incubation at 37 °C, read-out: % remaining compound, human microsomes) came to 55%. In data set [3] (after 10 min), the “% compound remaining unaltered, rat microsomes” value (“% compound remaining unaltered” below) turned out to be 100%. Further, in data set [3] (after 20 min), the “% compound remaining unaltered” value is listed as 79%. Besides, in data set [3] (after 40 min), the “% compound remaining unaltered” value came out at 50%. For the same compound, the microsomal CLint at 1 h, 0.05 µM in data set [3] (rat, liver microsomes (pooled), pH 7.4, 37 °C) is 26 µL/min/mg. Besides, in data set [3] (rat, liver microsomes (pooled), pH 7.4, 37 °C, read-out: t1/2, rat microsomes), the half-life at 1 h, 0.05 µM came out at 26 min. Besides, the fraction remaining at 1 h, 0.05 µM in data set [3] (rat, liver microsomes (pooled), pH 7.4, after 1 h of incubation at 37 °C, read-out: % remaining compound, rat microsomes) came to 21%.

Usually IC50 stands for the concentration needed to halve the response being measured. A word on the microsomal CLint: it is the rate of metabolic loss divided by the concentration. A higher microsomal CLint goes with rapid turnover. Broadly, the fraction remaining is the share of the starting amount still present when the sample was taken.
